From US9833497B2, “Human originated EGF domain proteins and use of the same” (CHENGDU SOURCEBIO LIMITED-LIABILITY COMPANY, priority 2013, dated 2017)

Tests used:
Assay type in all cases: cell-based
Pseudomonas aeruginosa = assay: MIC against Gram-negative bacteria: Pseudomonas aeruginosa; conditions: for MIC: P. aeruginosa
Procedure, shortened: (§1)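 Purified recombinant human EGF domain proteins are tested by broth dilution in LB against a 5×10^5 CFU/mL inoculum, with two-fold serial dilutions run in triplicate. Plates are incubated at 37° C with shaking, and the MIC is read as the lowest protein concentration without growth.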

Citrobacter diversus = assay: MIC against Gram-negative bacteria: Citrobacter diversus; conditions: for MIC: C. diversus
Procedure, shortened: as §1

E. coli DH5α = assay: Antibacterial activity: MIC and growth curve against E. coli DH5α in 96-well plate; conditions: minimal inhibitory concentration against E. coli DH5α; 96-well plate, 5×10^5 CFU/mL, 37° C., judged after 8 h
Procedure, shortened: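 Log-phase bacteria (OD600 ~0.5) resuspended in LB at 5×10^5 CFU/mL, exposed to recombinant protein at 50, 25, 12.5 μg/mL final in triplicate, 37 °C shaking at 175 rpm. OD600 read every 30 min; MIC is lowest concentration showing no growth.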

Enterobacter cloacae = assay: MIC against Gram-negative bacteria: Enterobacter cloacae; conditions: for MIC: E. cloacae
Procedure, shortened: as §1

Serratia marcescens = assay: MIC against Gram-negative bacteria: Serratia marcescens; conditions: for MIC: S. marcescens
Procedure, shortened: as §1

Proteus mirabilis = assay: MIC against Gram-negative bacteria: Proteus mirabilis; conditions: for MIC: P. mirabilis
Procedure, shortened: as §1

Aeromonas hydrophila = assay: MIC against Gram-negative bacteria: Aeromonas hydrophila; conditions: for MIC: A. hydrophila
Procedure, shortened: as §1

Moraxella catarrhalis = assay: MIC against Gram-negative bacteria: Moraxella catarrhalis; conditions: for MIC: M. catarrhalis
Procedure, shortened: as §1

Klebsiella pneumonia = assay: MIC against Gram-negative bacteria: Klebsiella pneumonia; conditions: for MIC: K. pneumonia
Procedure, shortened: as §1

Proteus vulgaris = assay: MIC against Gram-negative bacteria: Proteus vulgaris; conditions: for MIC: P. vulgaris
Procedure, shortened: as §1

E. coli BL21 = assay: MIC against Gram-negative bacteria: E. coli BL21
Procedure, shortened: as §1

[1] = E. coli BL21, 10 h cultivation at 37° C.
[2] = 96-well plate, 5×10^5 CFU/mL, 37° C., 10 h
[3] = Pseudomonas aeruginosa, 96-well plate, 5×10^5 CFU/mL, 37° C., 10 h
[4] = Citrobacter diversus, 96-well plate, 5×10^5 CFU/mL, 37° C., 10 h
[5] = Enterobacter cloacae, 96-well plate, 5×10^5 CFU/mL, 37° C., 10 h
[6] = Serratia marcescens, 96-well plate, 5×10^5 CFU/mL, 37° C., 10 h
[7] = Proteus mirabilis, 96-well plate, 5×10^5 CFU/mL, 37° C., 10 h
[8] = Aeromonas hydrophila, 96-well plate, 5×10^5 CFU/mL, 37° C., 10 h
[9] = Moraxella catarrhalis, 96-well plate, 5×10^5 CFU/mL, 37° C., 10 h
[10] = Klebsiella pneumonia, 96-well plate, 5×10^5 CFU/mL, 37° C., 10 h
[11] = Proteus vulgaris, 96-well plate, 5×10^5 CFU/mL, 37° C., 10 h
[12] = E. coli BL21, 96-well plate, 5×10^5 CFU/mL, 37° C., 10 h
[13] = 10 h cultivation at 37° C., 5×10^5 CFU/mL
[14] = Pseudomonas aeruginosa, 5×10^5 CFU/mL, 10 h cultivation at 37° C.
[15] = Citrobacter diversus, 5×10^5 CFU/mL, 10 h cultivation at 37° C.
[16] = Enterobacter cloacae, 5×10^5 CFU/mL, 10 h cultivation at 37° C.
[17] = Serratia marcescens, 5×10^5 CFU/mL, 10 h cultivation at 37° C.
[18] = Proteus mirabilis, 5×10^5 CFU/mL, 10 h cultivation at 37° C.
[19] = Aeromonas hydrophila, 5×10^5 CFU/mL, 10 h cultivation at 37° C.
[20] = Moraxella catarrhalis, 5×10^5 CFU/mL, 10 h cultivation at 37° C.
[21] = Klebsiella pneumonia, 5×10^5 CFU/mL, 10 h cultivation at 37° C.
[22] = Proteus vulgaris, 5×10^5 CFU/mL, 10 h cultivation at 37° C.
[23] = E. coli BL21, 5×10^5 CFU/mL, 10 h cultivation at 37° C.

PRT929 (QIDECYSSPCLNDGRCIDLVNGYQCNCQPGTSGVNCE; listed as Homo sapiens)
MIC (Pseudomonas aeruginosa; 10 h cultivation at 37° C.): 12.5 mg/L | MIC (Citrobacter diversus; 10 h cultivation at 37° C.): 12.5 mg/L | MIC (E. coli DH5α): 100 mg/L | MIC (Enterobacter cloacae; 10 h cultivation at 37° C.): 50 mg/L | MIC (Serratia marcescens; 10 h cultivation at 37° C.): 12.5 mg/L | MIC (Proteus mirabilis; 10 h cultivation at 37° C.): 12.5 mg/L | MIC (Aeromonas hydrophila; 10 h cultivation at 37° C.): 25 mg/L | MIC (Moraxella catarrhalis; 10 h cultivation at 37° C.): 50 mg/L | MIC (Klebsiella pneumonia; 10 h cultivation at 37° C.): 25 mg/L | MIC (Proteus vulgaris; 10 h cultivation at 37° C.): 50 mg/L | MIC (E. coli BL21; [1]): 25 mg/L

PRT729 (GSNACNQPTHPNGDCSHFCFPVPNFQRVCGCPYGMRLASNHLTCE; listed as Homo sapiens)
MIC P. aeruginosa (Pseudomonas aeruginosa; [2]): 12.5 mg/L | MIC C. diversus (Citrobacter diversus; [2]): 12.5 mg/L | MIC (E. coli DH5α): 12.5 mg/L | MIC E. cloacae (Enterobacter cloacae; [2]): 12.5 mg/L | MIC S. marcescens (Serratia marcescens; [2]): 50 mg/L | MIC P. mirabilis (Proteus mirabilis; [2]): 12.5 mg/L | MIC A. hydrophila (Aeromonas hydrophila; [2]): 25 mg/L | MIC M. catarrhalis (Moraxella catarrhalis; [2]): 25 mg/L | MIC K. pneumonia (Klebsiella pneumonia; [2]): 25 mg/L | MIC P. vulgaris (Proteus vulgaris; [2]): 25 mg/L | MIC E. coli BL21 (E. coli BL21; [2]): 25 mg/L

PRT30 (PCDCYPVGSTSRSCAPHSGQCPCRPGALGRQCNSCDSPF; listed as Homo sapiens)
MIC (μg/mL) P. aeruginosa (Pseudomonas aeruginosa; [3]): 12.5 µg/mL | MIC (μg/mL) C. diversus (Citrobacter diversus; [4]): 25 µg/mL | MIC (E. coli DH5α): 25 mg/L | MIC (μg/mL) E. cloacae (Enterobacter cloacae; [5]): 50 µg/mL | MIC (μg/mL) S. marcescens (Serratia marcescens; [6]): 12.5 µg/mL | MIC (μg/mL) P. mirabilis (Proteus mirabilis; [7]): 12.5 µg/mL | MIC (μg/mL) A. hydrophila (Aeromonas hydrophila; [8]): 12.5 µg/mL | MIC (μg/mL) M. catarrhalis (Moraxella catarrhalis; [9]): 50 µg/mL | MIC (μg/mL) K. pneumonia (Klebsiella pneumonia; [10]): 25 µg/mL | MIC (μg/mL) P. vulgaris (Proteus vulgaris; [11]): 25 µg/mL | MIC (μg/mL) E. coli BL21 (E. coli BL21; [12]): 50 µg/mL

PRT1256 (DVDECQDNNGGCQQICVNAMGSYECQCHSGFFLSDNQ; listed as Homo sapiens)
MIC against P. aeruginosa (Pseudomonas aeruginosa; [3]): 25 mg/L | MIC against C. diversus (Citrobacter diversus; [4]): 12.5 mg/L | MIC (E. coli DH5α): 25 mg/L | MIC against E. cloacae (Enterobacter cloacae; [5]): 25 mg/L | MIC against S. marcescens (Serratia marcescens; [6]): 25 mg/L | MIC against P. mirabilis (Proteus mirabilis; [7]): 12.5 mg/L | MIC against A. hydrophila (Aeromonas hydrophila; [8]): 50 mg/L | MIC against M. catarrhalis (Moraxella catarrhalis; [9]): 50 mg/L | MIC against K. pneumonia (Klebsiella pneumonia; [10]): 12.5 mg/L | MIC against P. vulgaris (Proteus vulgaris; [11]): 50 mg/L | MIC against E. coli BL21 (E. coli BL21; [12]): 12.5 mg/L

PRT659 (DADECVIFGPGLCPNGRCLNTVPGYVCLCNPGFHYDASHKKCE; listed as Homo sapiens)
MIC P. aeruginosa (Pseudomonas aeruginosa; [2]): 25 mg/L | MIC C. diversus (Citrobacter diversus; [2]): 25 mg/L | MIC (E. coli DH5α): 25 mg/L | MIC E. cloacae (Enterobacter cloacae; [2]): 25 mg/L | MIC S. marcescens (Serratia marcescens; [2]): 50 mg/L | MIC P. mirabilis (Proteus mirabilis; [2]): 12.5 mg/L | MIC A. hydrophila (Aeromonas hydrophila; [2]): 50 mg/L | MIC M. catarrhalis (Moraxella catarrhalis; [2]): 25 mg/L | MIC K. pneumonia (Klebsiella pneumonia; [2]): 12.5 mg/L | MIC P. vulgaris (Proteus vulgaris; [2]): 25 mg/L | MIC E. coli BL21 (E. coli BL21; [2]): 50 mg/L

PRT915 (ASSPCLGGNPCYNQGTCEPTSESPFYRCLCPAKFNGLLCH; listed as Homo sapiens)
MIC (Pseudomonas aeruginosa; 10 h cultivation at 37° C.): 50 mg/L | MIC (Citrobacter diversus; 10 h cultivation at 37° C.): 25 mg/L | MIC (E. coli DH5α): 25 mg/L | MIC (Enterobacter cloacae; 10 h cultivation at 37° C.): 12.5 mg/L | MIC (Serratia marcescens; 10 h cultivation at 37° C.): 25 mg/L | MIC (Proteus mirabilis; 10 h cultivation at 37° C.): 25 mg/L | MIC (Aeromonas hydrophila; 10 h cultivation at 37° C.): 25 mg/L | MIC (Moraxella catarrhalis; 10 h cultivation at 37° C.): 50 mg/L | MIC (Klebsiella pneumonia; 10 h cultivation at 37° C.): 25 mg/L | MIC (Proteus vulgaris; 10 h cultivation at 37° C.): 25 mg/L | MIC (E. coli BL21; [1]): 25 mg/L

PRT438 (DIDECALGRHTCHAGQDCDNTIGSYRCVVRCGSGFRRTSDGLSCQ; listed as Homo sapiens)
MIC (Pseudomonas aeruginosa; [13]): 50 mg/L | MIC (Citrobacter diversus; [13]): 50 mg/L | MIC (E. coli DH5α): 25 mg/L | MIC (Enterobacter cloacae; [13]): 50 mg/L | MIC (Serratia marcescens; [13]): 50 mg/L | MIC (Proteus mirabilis; [13]): 50 mg/L | MIC (Aeromonas hydrophila; [13]): 12.5 mg/L | MIC (Moraxella catarrhalis; [13]): 12.5 mg/L | MIC (Klebsiella pneumonia; [13]): 12.5 mg/L | MIC (Proteus vulgaris; [13]): 12.5 mg/L | MIC (E. coli BL21; E. coli BL21, 10 h cultivation at 37° C., 5×10^5 CFU/mL): 12.5 mg/L

PRT485 (QADPCKFLACGEFAQCVKNERTEEAECRCKPGYDSQGSL; listed as Homo sapiens)
MIC against P. aeruginosa (Pseudomonas aeruginosa; [2]): 50 mg/L | MIC against C. diversus (Citrobacter diversus; [2]): 50 mg/L | MIC (E. coli DH5α): 50 mg/L | MIC against E. cloacae (Enterobacter cloacae; [2]): 12.5 mg/L | MIC against S. marcescens (Serratia marcescens; [2]): 50 mg/L | MIC against P. mirabilis (Proteus mirabilis; [2]): 12.5 mg/L | MIC against A. hydrophila (Aeromonas hydrophila; [2]): 25 mg/L | MIC against M. catarrhalis (Moraxella catarrhalis; [2]): 25 mg/L | MIC against K. pneumonia (Klebsiella pneumonia; [2]): 25 mg/L | MIC against P. vulgaris (Proteus vulgaris; [2]): 25 mg/L | MIC against E. coli BL21 (E. coli BL21; [2]): 12.5 mg/L

PRT1458 (CNCHLSGALNETCHLVTGQCFCKQFVTGSKCDACVPSASHLDVNNLLGCSK; listed as Homo sapiens)
MIC against P. aeruginosa (Pseudomonas aeruginosa; [14]): 25 mg/L | MIC against C. diversus (Citrobacter diversus; [15]): 25 mg/L | MIC (E. coli DH5α): 12.5 mg/L | MIC against E. cloacae (Enterobacter cloacae; [16]): 25 mg/L | MIC against S. marcescens (Serratia marcescens; [17]): 50 mg/L | MIC against P. mirabilis (Proteus mirabilis; [18]): 12.5 mg/L | MIC against A. hydrophila (Aeromonas hydrophila; [19]): 50 mg/L | MIC against M. catarrhalis (Moraxella catarrhalis; [20]): 25 mg/L | MIC against K. pneumonia (Klebsiella pneumonia; [21]): 12.5 mg/L | MIC against P. vulgaris (Proteus vulgaris; [22]): 25 mg/L | MIC against E. coli BL21 (E. coli BL21; [23]): 12.5 mg/L

PRT1409 (RACHPRCAEHGTCKDGKCECSQGWNGEHCT; listed as Homo sapiens)
MIC against P. aeruginosa (Pseudomonas aeruginosa; [14]): 12.5 mg/L | MIC against C. diversus (Citrobacter diversus; [15]): 12.5 mg/L | MIC (E. coli DH5α): 12.5 mg/L | MIC against E. cloacae (Enterobacter cloacae; [16]): 12.5 mg/L | MIC against S. marcescens (Serratia marcescens; [17]): 50 mg/L | MIC against P. mirabilis (Proteus mirabilis; [18]): 50 mg/L | MIC against A. hydrophila (Aeromonas hydrophila; [19]): 12.5 mg/L | MIC against M. catarrhalis (Moraxella catarrhalis; [20]): 12.5 mg/L | MIC against K. pneumonia (Klebsiella pneumonia; [21]): 12.5 mg/L | MIC against P. vulgaris (Proteus vulgaris; [22]): 12.5 mg/L | MIC against E. coli BL21 (E. coli BL21; [23]): 12.5 mg/L
